The values below come from patent US20220370493A1, “METHODS AND COMPOSITIONS FOR GENERATING NITRIC OXIDE AND USES THEREOF” (THIRTY HOLDINGS LIMITED, priority 2019, published 2022).

Structures are written as SMILES.

The test system of series [1] is SARS-CoV-2 clinical isolate. Nature of the series: SARS-CoV-2 virus yield reduction assay in Vero E6 cells. It is filed as cell-based. How it is done:
SARS-CoV-2 clinical isolate.
At time 0 hr, Vero E6 cells were infected with virus in presence of the formulation or controls and incubated for 1 hour. After this incubation period the inoculum was removed and the cells were washed. Fresh formulation or controls were then added to the washed cells. At 24 hours post infection, Vero E6 cell supernatants were harvested and titrated, and the virus titration was incubated for 6 days prior to readout to determine any virus yield reduction. Separate tests were performed at four MOIs including 3.0 and 0.3, although only those two MOIs were titrated. The readout was by crystal violet (cell monolayer) staining, followed by CPE scoring.

As for `CCN(CC)CCCC(C)Nc1ccnc2cc(Cl)ccc12` (stereo not shown) [chloroquine, Chloroquine phosphate], the SARS-CoV-2 titre result in series [1] (FIG. 33, Run 1, MOI 3.0, 24 hours) is “limit of detection”; in series [1] (FIG. 34, Run 2, MOI 3.0 and MOI 0.3, 48 hours), “limit of detection”.
For `O=C(O)CC(O)(CC(=O)O)C(=O)O` [citric acid pH 5.8, citric acid], the “cytotoxicity on the LDH assay” value in the series on Vero E6 cells was “low cytotoxicity”. The “in vitro antiviral action against SARS-CoV-2” value in series [1] (FIGS. 33 and 34, MOI 3.0 and 0.3) was “high in vitro antiviral action”.
